From patent US6620819B2, “Anticonvulsant derivatives useful in treating psychosis” (Ortho-McNeil Pharmaceutical, Inc., priority 1999, dated 2003)

Tests used:
[1] = test system: behavioral agitation in dementia; settings: some patients with dementia; cited from earlier work
[2] = test system: patients with dementia; assay: retrospective chart review of open label add-on topiramate, dementia patients; assay type: in vivo, human; settings: all three dementia inpatients; daily mean dose 210 mg, duration 11.7 weeks; added to existing pharmacotherapy, several on risperidone
Experimental: (§1) A retrospective analysis of patients treated in an open label manner with topiramate for dementia and/or behavioral and psychotic disturbances in dementia was performed.
(§2) The charts of 58 consecutive patients with diagnosed psychiatric disorders refractory to conventional mood stabilizers who were treated with topiramate were selected for retrospective review. Topiramate 25 mg BID was added to existing pharmacotherapy on an open label basis. It was titrated upward in 50 mg (25 mg bid) increments every seven days until improvement occurred or a total dosage of 400 mg per day was reached. Charts were retrospectively reviewed for the following data: demographic information, psychiatric diagnosis and duration of illness, general medical history, daily dose of topiramate and regimen, duration of topiramate therapy, reason for discontinuation of topiramate therapy, previous therapy, concurrent medications, adverse events and evaluation of response to topiramate.
(§3) Results were analyzed using descriptive statistics. When possible, results are expressed as means with standard deviation (SD). […] Improvement was investigator rated and included a qualitative assessment of changes in sleep, appetite, mood and concentration during therapy. Adverse events reported by the patients were recorded during therapy and assessed for their relationship to study therapy. […]

[3] = test system: patients with psychosis, not otherwise specified; assay: retrospective chart review of open label add-on topiramate, psychosis patients; assay type: in vivo, human; settings: both psychosis inpatients; daily mean dose 260 mg, duration 10.7 weeks; added to existing pharmacotherapy, several on risperidone
Experimental: as §1, §2, §3

[4] = test system: simple and complex partial seizures and secondarily generalized seizures; settings: adjunctive therapy or monotherapy, clinical trials; cited from earlier work
[5] = test system: seizures in several rodent models of epilepsy; settings: cited from earlier work
[6] = test system: kindled epilepsy; settings: animal model of kindled epilepsy; cited from earlier work

Compound	control of behavioral agitation [1]	investigator rated response (Likert scale worse / no change / minimally improved / markedly improved) [2]	investigator rated response (Likert scale worse / no change / minimally improved / markedly improved) [3]	efficacy in treating simple and complex partial seizures and secondarily generalized seizures [4]	block of seizures [5]	block of seizures [6]
NC(=O)N1c2ccccc2C=Cc2ccccc21 [carbamazepine]	efficacious	–	–	–	–	–
CCCC(CCC)C(=O)O [divalproex sodium]	efficacious	–	–	–	–	–
CC1(C)O[C@@H]2[C@@H](CO[C@@]3(COS(N)(=O)=O)OC(C)(C)O[C@@H]23)O1 [topiramate, 2,3:4,5-bis-O-(1-methylethylidene)-β-D-fructopyranose sulfamate]	–	marked or moderate improvement	marked or moderate improvement	effective	effectively block seizures	effectively block seizures
